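Grown in 96-well plates, cells were treated for 48 hours with each compound at five concentrations. Insufficient inhibition: endpoint recorded as highest concentration tested. TGI marks complete inhibition of growth.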

Test systems include UACC-62 melanoma; DU-145 prostate; MCF7 breast; OVCAR-5 ovarian; EKVX NSCLC; NCI-H522 lung; MDA-N; ACHN renal; T-47D breast; KM12 colon; PC-3 prostate; UO-31 renal; RPMI-8226 leukemia; MALME-3M melanoma; MDA-MB-231 breast; TK-10 renal; NCI-H460 lung; SF-539 CNS.
Experiment in all cases: inhibition of tumour cell growth, NCI panel, 48 h

For `COC1=CC(=O)c2c(cc(COP(=O)(OCC3OC(n4cc(F)c(=O)[nH]c4=O)CC3O)N(C)CCCCCl)n2C)C1=O` (stereo unspecified), the TGI worked out at 1.79 µM with UACC-62 melanoma; 33.3 µM in the test with DU-145 prostate; 1.84 µM with MCF7 breast; 41.1 µM in the test on OVCAR-5 ovarian; 26 µM in the test on EKVX NSCLC; 19.1 µM with NCI-H522 lung. The TGI with MDA-N is 8.86 µM; in the test on ACHN renal, > 100 µM; in the test with T-47D breast it was 36.2 µM; in the test on KM12 colon, 97.9 µM; with PC-3 prostate, 22.7 µM; with UO-31 renal, > 69.3 µM. Further, the TGI is > 19.8 µM in the test on RPMI-8226 leukemia; 9.97 µM in the test on MALME-3M melanoma; 35.8 µM in the test with MDA-MB-231 breast; > 100 µM with TK-10 renal; 14 µM in the test on NCI-H460 lung.
For the molecule `COC(=O)C(C(=O)C(=O)Nc1ccccc1C#N)c1nc2ccc([N+](=O)[O-])cc2[nH]c1=O` (stereo unspecified), the TGI in the test on UACC-62 melanoma, with DU-145 prostate, with SF-539 CNS, with MCF7 breast, with OVCAR-5 ovarian and in the test on EKVX NSCLC was > 100 µM in each case. In addition, the TGI with NCI-H522 lung, in the test on MDA-N, in the test with ACHN renal, with T-47D breast, with KM12 colon and in the test with PC-3 prostate was > 100 µM in each case. The TGI in the test with UO-31 renal, in the test on MALME-3M melanoma, in the test on MDA-MB-231 breast, in the test on TK-10 renal and in the test with NCI-H460 lung was > 100 µM throughout.
As to `CC1CCCCN1CC(=O)c1ccc2c(c1)Sc1ccccc1O2` (stereo unspecified), the TGI was found to be 30.1 µM in the test on UACC-62 melanoma; 67.8 µM in the test on DU-145 prostate; 34 µM in the test on SF-539 CNS; 33.6 µM in the test on MCF7 breast; 34.5 µM in the test on OVCAR-5 ovarian; 28.7 µM in the test with EKVX NSCLC. Moreover, the TGI in the test with MDA-N stood at 32.2 µM; in the test on ACHN renal it was 28.8 µM; in the test on T-47D breast, 48 µM; in the test on KM12 colon, 30.3 µM; in the test on PC-3 prostate, 26.1 µM; in the test on UO-31 renal, 25.7 µM. In addition, the TGI in the test with RPMI-8226 leukemia was > 100 µM; with MALME-3M melanoma it was 26.8 µM; in the test on MDA-MB-231 breast, 54.6 µM; in the test with TK-10 renal, 42.5 µM; in the test on NCI-H460 lung, 29.7 µM.
Consider `N#CCOc1ccc(/C=C/C(=O)c2ccc(Cl)cc2)cc1`, for which the TGI was 41.6 µM in the test on UACC-62 melanoma; > 100 µM in the test on DU-145 prostate; 36.4 µM with SF-539 CNS; 54.1 µM in the test on MCF7 breast; > 100 µM with OVCAR-5 ovarian; > 100 µM with EKVX NSCLC. The TGI in the test with MDA-N is > 100 µM; with ACHN renal, > 100 µM; with T-47D breast, 61.2 µM; in the test on KM12 colon it was 73.5 µM; with PC-3 prostate, > 100 µM; in the test with UO-31 renal it was 88.6 µM. The TGI in the test with RPMI-8226 leukemia was > 100 µM; in the test with MALME-3M melanoma, 58.4 µM; with MDA-MB-231 breast, 85.5 µM; in the test on TK-10 renal, 74.5 µM; in the test with NCI-H460 lung, 64.2 µM.
For the molecule `O=C(CC(C(=O)c1cccs1)c1cccs1)c1ccccc1Cl` (stereo unspecified), the TGI with UACC-62 melanoma, in the test on DU-145 prostate, in the test on SF-539 CNS, in the test with MCF7 breast, in the test with OVCAR-5 ovarian and in the test on EKVX NSCLC was > 100 µM in each case. Besides, the TGI with MDA-N, in the test with ACHN renal, in the test on T-47D breast, in the test on KM12 colon, in the test with PC-3 prostate and in the test on UO-31 renal was > 100 µM each time. Besides, the TGI in the test on RPMI-8226 leukemia, with MALME-3M melanoma, in the test with MDA-MB-231 breast, in the test on TK-10 renal and in the test on NCI-H460 lung was > 100 µM throughout.
On to `O=C1CCCC(=O)N1n1c(Cc2ccccc2)n[nH]c1=O`, for which the TGI in the test on UACC-62 melanoma, with DU-145 prostate, in the test on MCF7 breast, in the test on OVCAR-5 ovarian, in the test on EKVX NSCLC and in the test on NCI-H522 lung was > 100 µM throughout. Moreover, the TGI with MDA-N, in the test with ACHN renal, in the test with T-47D breast, in the test with KM12 colon, in the test with PC-3 prostate and in the test with UO-31 renal was > 100 µM throughout. Also, the TGI with RPMI-8226 leukemia, in the test on MALME-3M melanoma, in the test on MDA-MB-231 breast and in the test on TK-10 renal was > 100 µM each time.
Consider `COc1cc(C(=O)C2C(=O)c3ccccc3C2C2(O)c3ccccc3CC2C(O)c2cc(OC)c(OC)c(OC)c2)cc(OC)c1OC` (stereo unspecified), for which the TGI with UACC-62 melanoma, with DU-145 prostate, in the test with SF-539 CNS, in the test on MCF7 breast, with OVCAR-5 ovarian and with EKVX NSCLC was > 100 µM throughout. The TGI with MDA-N, with ACHN renal, in the test with T-47D breast, in the test with KM12 colon, in the test on PC-3 prostate and in the test with UO-31 renal was > 100 µM each time. Further, the TGI in the test with RPMI-8226 leukemia was 84.4 µM; in the test with MALME-3M melanoma it was > 100 µM; with MDA-MB-231 breast, > 100 µM; with TK-10 renal, > 100 µM; in the test on NCI-H460 lung, > 100 µM.
`O=c1oc2ccccc2c(O)c1/C=N/C(=S)NCc1ccccc1`: the TGI with DU-145 prostate, with SF-539 CNS, with MCF7 breast, with OVCAR-5 ovarian, in the test on EKVX NSCLC and in the test with MDA-N was > 100 µM each time. The TGI in the test on ACHN renal, with T-47D breast, in the test on KM12 colon, in the test on PC-3 prostate, with UO-31 renal and in the test on MDA-MB-231 breast was > 100 µM in each case. Besides, the values for the TGI in the test with TK-10 renal and in the test with NCI-H460 lung were 51.8 µM and > 100 µM, respectively.
With `C[n+]1c2ccccc2n2c3ccccc3c(NCCc3ccccn3)c(C#N)c21`, the TGI in the test with DU-145 prostate is 7.01 µM; in the test with SF-539 CNS, 12.6 µM; with MCF7 breast, 2.97 µM; in the test with OVCAR-5 ovarian, > 21.7 µM; in the test with EKVX NSCLC it was 19.5 µM; in the test with NCI-H522 lung it was 3.95 µM. Also, the TGI with MDA-N was 4.87 µM; with ACHN renal, > 20.1 µM; with T-47D breast, 13.7 µM; in the test with KM12 colon, 29 µM; with PC-3 prostate, 23.9 µM; in the test with UO-31 renal, 6.51 µM. Further, the TGI with MALME-3M melanoma worked out at 12 µM; in the test with MDA-MB-231 breast it was 6.83 µM; in the test on TK-10 renal it was 7.88 µM; in the test on NCI-H460 lung it was 3.61 µM.
Turning to `Nn1c(CCCCCCCCc2nnc(COc3ccccc3)n2N)nnc1COc1ccccc1`, the TGI in the test on UACC-62 melanoma, in the test with DU-145 prostate, in the test on MCF7 breast, with OVCAR-5 ovarian, with EKVX NSCLC and in the test with NCI-H522 lung was > 100 µM in each case. In addition, the TGI in the test on MDA-N, in the test with ACHN renal, with T-47D breast, with KM12 colon, in the test on PC-3 prostate and with UO-31 renal was > 100 µM in each case. Further, the TGI in the test with RPMI-8226 leukemia, in the test with MALME-3M melanoma, with MDA-MB-231 breast, with TK-10 renal and in the test with NCI-H460 lung was > 100 µM each time.
On to `CCOC(=O)C1=c2[nH]c3cccc4cccc(c43)n2C(=O)CC1c1ccccc1` (stereo unspecified), for which the TGI in the test on UACC-62 melanoma, with DU-145 prostate, in the test with MCF7 breast, in the test with OVCAR-5 ovarian, with EKVX NSCLC and in the test with NCI-H522 lung was > 100 µM in each case. Also, the TGI in the test with MDA-N, in the test with ACHN renal, in the test with T-47D breast, in the test with KM12 colon, in the test with PC-3 prostate and with UO-31 renal was > 100 µM in each case. The TGI with RPMI-8226 leukemia, with MALME-3M melanoma, in the test with MDA-MB-231 breast, in the test with TK-10 renal and in the test on NCI-H460 lung was > 100 µM in each case.
Regarding `COc1cc(OC)c2c(=O)c(OC)c(-c3ccc4c(c3)OCO4)oc2c1OC`, the TGI in the test with UACC-62 melanoma, with DU-145 prostate, in the test on SF-539 CNS, in the test with MCF7 breast, in the test on OVCAR-5 ovarian and with EKVX NSCLC was > 100 µM each time. Further, the TGI in the test with NCI-H522 lung, in the test on MDA-N, with ACHN renal, in the test on T-47D breast, with KM12 colon and in the test on PC-3 prostate was > 100 µM each time. Also, the TGI in the test on UO-31 renal, in the test with MALME-3M melanoma, with MDA-MB-231 breast, in the test with TK-10 renal and in the test with NCI-H460 lung was > 100 µM each time.
Turning to `CCOC(=O)/C(N=Nc1ccc(-n2c(C)nc3ccc(Br)cc3c2=O)cc1)=C(/C)O`, the TGI in the test on UACC-62 melanoma, in the test with DU-145 prostate, with SF-539 CNS, in the test with MCF7 breast, with OVCAR-5 ovarian and with EKVX NSCLC was > 100 µM throughout. In addition, the TGI in the test on MDA-N, in the test on ACHN renal, in the test on T-47D breast, in the test on KM12 colon, in the test with PC-3 prostate and with UO-31 renal was > 100 µM throughout. The TGI in the test with RPMI-8226 leukemia, in the test on MDA-MB-231 breast, with TK-10 renal and in the test on NCI-H460 lung was > 100 µM each time.
As to `O=C(OC[C@H]1C[C@H]2C(=O)CCC[C@H]2O1)c1ccccc1`, the TGI with UACC-62 melanoma, with DU-145 prostate, with SF-539 CNS, with MCF7 breast, with OVCAR-5 ovarian and with EKVX NSCLC was > 100 µM each time. The TGI in the test with NCI-H522 lung, in the test on MDA-N, with ACHN renal, in the test with T-47D breast, in the test on KM12 colon and in the test on PC-3 prostate was > 100 µM each time. For the same molecule, the TGI in the test with UO-31 renal, in the test with RPMI-8226 leukemia, with MDA-MB-231 breast, in the test on TK-10 renal and with NCI-H460 lung was > 100 µM throughout.
Take `COc1cc2c(cc1OC)CN1CCCc3cc(OC)c(OC)cc3C1C2` (stereo unspecified): the TGI in the test on UACC-62 melanoma is > 100 µM; in the test on DU-145 prostate, > 100 µM; in the test with SF-539 CNS it was 50.1 µM; with MCF7 breast it was 95.2 µM; with OVCAR-5 ovarian, > 100 µM; in the test with EKVX NSCLC, > 100 µM. The TGI with NCI-H522 lung is > 100 µM; in the test with MDA-N, 42.4 µM; in the test on ACHN renal it was > 100 µM; with T-47D breast it was > 100 µM; with KM12 colon, > 100 µM; in the test with PC-3 prostate, > 100 µM. Besides, the TGI with UO-31 renal, in the test on MALME-3M melanoma, with MDA-MB-231 breast, in the test with TK-10 renal and with NCI-H460 lung was > 100 µM throughout.
In the case of `N#CCCN(CCC#N)c1ccc(C(N=Nc2ccccc2)=Nc2ccc(Cl)cc2)cc1`, the TGI in the test with UACC-62 melanoma, in the test on DU-145 prostate, with SF-539 CNS, in the test with MCF7 breast, in the test on OVCAR-5 ovarian and in the test on EKVX NSCLC was > 100 µM in each case. In addition, the TGI in the test with NCI-H522 lung, in the test with MDA-N, with ACHN renal, in the test with T-47D breast, in the test on KM12 colon and in the test with PC-3 prostate was > 100 µM in each case. For the same molecule, the TGI with UO-31 renal, in the test on RPMI-8226 leukemia, with MDA-MB-231 breast, in the test with TK-10 renal and in the test on NCI-H460 lung was > 100 µM in each case.

The values are drawn from PubChem BioAssay (NCI).
